In paper PMC7403827 (Clinical and Translational Medicine, 2020):
Where two headings read alike, the source gives them in different places.

Tests used:
[1] = previously reported, cited from earlier work
[2] = test system: CYP3A4; design: method as in PMID 28967981; conditions: cited from earlier work
[3] = test system: EGFR‐mutant advanced non‐squamous NSCLC; assay: Antitumor response (RECIST 1.1), PFS and OS; conditions: for median PFS: Kaplan‐Meier
Excerpt: Other endpoints included objective response rate (ORR) and disease control rate (DCR), progression‐free survival (PFS), and overall survival (OS). […] Combination therapy was continued until the status of progression disease, unbearable toxicity, withdrawal of informed consent form or discontinuation that was at the discretion of the principal investigator (see Supporting Information).
Adverse events (AEs) in line with the version 4.0 of National Cancer Institute's Common Terminology Criteria for Adverse Events (CTCAE 4.0) were evaluated by the investigators. AEs were strictly recorded from the timepoint that ICF was obtained to 28 days after the finish of study. Imaging examinations was conducted before treatment, at the finish of the first follow‐up, and every other two follow‐ups afterward by taking the same examinations. Response of tumor was assessed based on the RECIST 1.1 guidelines. Primary assessment for antitumor response: (a) ORR, defining as the proportion of participants that achieved a complete response (CR) or a partial response (PR); (b) disease control rate (DCR), defining as the proportion of participants reached a status of CR or PR or stable disease (SD). After 4 weeks, best overall response (BOR) was confirmed.
Patients in the ITT analysis who had complete safety records were pooled in the safety set (SS). The qualitative and quantitative data were summarized with the descriptive statistics. Efficacy was also assessed in the ITT analysis. The Kaplan‐Meier method described PFS and OS. Survival distribution differences were evaluated by the log‐rank test. […] Fisher's exact test compared the response rate in the various subgroups. Two‐sided tests were applied. […] All statistical analyses and graphs were made by the Statistical Package for Social Sciences (SPSS) 23.0 and GraphPad Prism 7.

[4] = Apatinib 250mg, ref [1] Yu M et al., Clinical Pharmacokinetics 2017
[5] = Apatinib 500mg, ref [2] Ding J et al., J Chromatogr B 2012
[6] = Apatinib Dose Cohort 250mg + gefitinib 250 mg, evaluable patients
[7] = Apatinib Dose Cohort 500mg + gefitinib 250 mg, evaluable patients
[8] = Total, both apatinib dose cohorts (n = 11)

N#CC1(c2ccc(NC(=O)c3cccnc3NCc3ccncc3)cc2)CCCC1 [Apatinib]
AUC0-24 [1, 4]: 3538 (1996-6025) ng·h/ml | Cmax [1, 4]: 581 (321-1216) ng/ml | AUC0-24 [1, 5]: 11295 (70) ng·h/ml | Cmax [1, 5]: 1521 (75) ng/ml | Tmax [1, 5]: 3.5 (3-8) h | inhibitory effect on CYP3A4 [2]: strong inhibitory effect | CR, patients [3, 6]: 0 | Disease Control CR+PR+SD [3, 6]: 6 (100.0) n (%) | Objective Response CR+PR [3, 6]: 5 (83.3) n (%) | PD, patients [3, 6]: 0 | PR, patients [3, 6]: 5 | CR, patients [3, 7]: 0 | Disease Control CR+PR+SD [3, 7]: 4 (80.0) n (%) | Objective Response CR+PR [3, 7]: 4 (80.0) n (%) | PD, patients [3, 7]: 1 | PR, patients [3, 7]: 4 | median PFS ([3]; Cohort A (apatinib 500 mg + gefitinib 250 mg)): 19.2 months | ORR ([3]; Cohort A: apatinib 500 mg + gefitinib 250 mg (4/5)): 80% | median PFS ([3]; Cohort B (apatinib 250 mg + gefitinib 250 mg)): 13.4 months | ORR ([3]; Cohort B: apatinib 250 mg + gefitinib 250 mg (5/6)): 83.3% | CR, patients [3, 8]: 0 | Disease Control CR+PR+SD [3, 8]: 10 (90.9) n (%) | Objective Response CR+PR [3, 8]: 9 (81.8) n (%) | PD, patients [3, 8]: 1 | PR, patients [3, 8]: 9 | DCR ([3]; apatinib 250 mg group + gefitinib 250 mg (6/6)): 100% | DCR ([3]; apatinib 500 mg group + gefitinib 250 mg (4/5)): 80.0%
